From patent US10813944B2, “Cyclodextrins as procoagulants” (STICHTING SANQUIN BLOEDVOORZIENING, priority 2016, dated 2020)

Legend:
[1] = test system: thrombin generation in pooled normal plasma; assay: Calibrated Automated Thrombogram thrombin generation assay in pooled normal plasma; type: biochemical, human; settings: for procoagulant effect in normal plasma: no anticoagulant, cyclodextrin 100 μM unless otherwise indicated, 1 pM TF; for procoagulant activity (overview): pooled normal plasma with and without the addition of anticoagulants; for lag time / peak thrombin: normal plasma, versus absence of cyclodextrin
Method: (§1) FIGS. 3-8, 12, 14-19 and 22-27: Pooled normal plasma was spiked with cyclodextrins (100 μM, unless otherwise indicated) and anticoagulants. The concentrations of the anticoagulants were 100 ng/ml for dabigatran (A), 100 ng/ml for rivaroxaban (B), 60 ng/ml for apixaban (C), 60 ng/ml for edoxaban (D). The plasmas were subjected to thrombin generation analysis as described in the Materials and Methods section with 1 pM tissue factor (TF) as initiator of coagulation.
(§2) The Calibrated Automated Thrombogram® assays the generation of thrombin in clotting plasma using a microtiter plate reading fluorometer (Fluoroskan Ascent, ThermoLab systems, Helsinki, Finland) and Thrombinoscope® software (Thrombinoscope BV, Maastricht, The Netherlands). The assay was carried out as described by Hemker et al. (Pathofysiol. IIaemost. Thromb. 2003, 33, 4-15), and the Thrombinoscope® manual. Coagulation was triggered by recalcification in the presence of 1 or 5 pM recombinant human tissue factor (Innovin®, Siemens, Marburg, Germany), 4 μM phospholipids, and 417 μM fluorogenic substrate Z-Gly-Gly-Arg-AMC (Bachem, Bubendorf, Switzerland). Fluorescence was monitored using the Fluoroskan Ascent fluorometer (ThermoLabsystems, Helsinki, Finland), and the lag time, peak thrombin, velocity index and area under the curve (ETP) were calculated using the Thrombinoscope® software (Thrombinoscope BV).
Thrombin generation analyses were performed in pooled normal plasma with and without the addition of anticoagulants.

[2] = test system: thrombin generation in pooled normal plasma spiked with anticoagulants; assay: Thrombin generation assay in pooled normal plasma spiked with anticoagulants; type: biochemical, human; settings: for effect on the anticoagulant effect of apixaban: apixaban 60 ng/ml; for effect on the anticoagulant effect of apixaban / effect on the anticoagulant effect of dabigatran / effect on the anticoagulant effect of edoxaban / effect on the anticoagulant effect of rivaroxaban: cyclodextrin 100 μM, 1 pM TF; for effect on the anticoagulant effect of dabigatran: dabigatran 100 ng/ml; for effect on the anticoagulant effect of edoxaban: edoxaban 60 ng/ml; for effect on the anticoagulant effect of rivaroxaban: rivaroxaban 100 ng/ml
Method: as §1
FIG. 9: Pooled normal plasma was spiked with OKL-1111 (100 μM, unless otherwise indicated (A)) and anticoagulants (B-E). The concentrations of the anticoagulants were 100 ng/ml for dabigatran (B), 100 ng/ml for rivaroxaban (C), 60 ng/ml for apixaban (D), 60 ng/ml for edoxaban (E). The plasmas were subjected to thrombin generation analysis as described in the Materials and Methods section with 1 pM tissue factor (TF) as initiator of coagulation.
FIG. 10: Pooled normal plasma was spiked with OKL-1111 (100 μM) and anticoagulants (A-F). The concentrations of the anticoagulants were 2 μg/ml for fondaparinux (A), 0.4 U/ml for nadroparin (B), 0.1 U/ml for tinzaparin (C), 0.03 U/ml for unfractionated heparin (UFH) (D), 0.5 U/ml for hirudin (E) and 10 μg/ml for bivalirudin (F). The plasmas were subjected to thrombin generation analysis as described in the Materials and Methods section with 1 pM tissue factor (TF) as initiator of coagulation.
as §2

Compound | procoagulant effect in normal plasma [1] | procoagulant activity (overview) [1] | procoagulant effect in plasma containing anticoagulants (not specified / NOACs) [2] | effect on the anticoagulant effect of apixaban [2] | effect on the anticoagulant effect of dabigatran [2] | effect on the anticoagulant effect of edoxaban [2] | effect on the anticoagulant effect of rivaroxaban [2] | lag time [1] | peak thrombin [1]
O=C(O)CCSCC1OC2OC3C(CO)OC(OC4C(CO)OC(OC5C(CO)OC(OC6C(CO)OC(OC7C(CO)OC(OC8C(CO)OC(OC1C(O)C2O)C(O)C8O)C(O)C7O)C(O)C6O)C(O)C5O)C(O)C4O)C(O)C3O (centres unmarked) [OKL-1100, reference compound] | did not show procoagulant activity | No | did not show procoagulant activity | – | – | – | – | – | –
O=C(O)CCSCC1OC2OC3C(CSCCC(=O)O)OC(OC4C(CSCCC(=O)O)OC(OC5C(CSCCC(=O)O)OC(OC6C(CSCCC(=O)O)OC(OC7C(CSCCC(=O)O)OC(OC8C(CSCCC(=O)O)OC(OC1C(O)C2O)C(O)C8O)C(O)C7O)C(O)C6O)C(O)C5O)C(O)C4O)C(O)C3O (centres unmarked) [OKL-1101, reference compound] | did not show procoagulant activity | No | did not show procoagulant activity | – | – | – | – | – | –
O=C(O)CCSCC1OC2OC3C(CO)OC(OC4C(CO)OC(OC5C(CO)OC(OC6C(CO)OC(OC7C(CO)OC(OC8C(CO)OC(OC9C(CO)OC(OC1C(O)C2O)C(O)C9O)C(O)C8O)C(O)C7O)C(O)C6O)C(O)C5O)C(O)C4O)C(O)C3O (centres unmarked) [OKL-1102, reference compound] | did not show procoagulant activity | No | did not show procoagulant activity | – | – | – | – | – | –
O=C(O)CCSCC1OC2OC3C(CSCCC(=O)O)OC(OC4C(CSCCC(=O)O)OC(OC5C(CSCCC(=O)O)OC(OC6C(CSCCC(=O)O)OC(OC7C(CSCCC(=O)O)OC(OC8C(CSCCC(=O)O)OC(OC9C(CSCCC(=O)O)OC(OC1C(O)C2O)C(O)C9O)C(O)C8O)C(O)C7O)C(O)C6O)C(O)C5O)C(O)C4O)C(O)C3O (centres unmarked) [OKL-1103, reference compound] | did not show procoagulant activity | No | did not show procoagulant activity | – | – | – | – | – | –
O=C(O)CCCSCC1OC2OC3C(CSCCCC(=O)O)OC(OC4C(CSCCCC(=O)O)OC(OC5C(CSCCCC(=O)O)OC(OC6C(CSCCCC(=O)O)OC(OC7C(CSCCCC(=O)O)OC(OC8C(CSCCCC(=O)O)OC(OC1C(O)C2O)C(O)C8O)C(O)C7O)C(O)C6O)C(O)C5O)C(O)C4O)C(O)C3O (centres unmarked) [OKL-1105] | significant procoagulant effect | – | – | procoagulant effects were observed | procoagulant effects were observed | procoagulant effects were observed | procoagulant effects were observed | – | –
O=C(O)CCCSCC1OC2OC3C(CO)OC(OC4C(CO)OC(OC5C(CO)OC(OC6C(CO)OC(OC7C(CO)OC(OC8C(CO)OC(OC9C(CO)OC(OC1C(O)C2O)C(O)C9O)C(O)C8O)C(O)C7O)C(O)C6O)C(O)C5O)C(O)C4O)C(O)C3O (centres unmarked) [OKL-1106] | procoagulant effect | – | – | less pronounced | significantly antagonized | less pronounced | significantly antagonized | – | –
O=C(O)CCCSCC1OC2OC3C(CSCCCC(=O)O)OC(OC4C(CSCCCC(=O)O)OC(OC5C(CSCCCC(=O)O)OC(OC6C(CSCCCC(=O)O)OC(OC7C(CSCCCC(=O)O)OC(OC8C(CSCCCC(=O)O)OC(OC9C(CSCCCC(=O)O)OC(OC1C(O)C2O)C(O)C9O)C(O)C8O)C(O)C7O)C(O)C6O)C(O)C5O)C(O)C4O)C(O)C3O (centres unmarked) [OKL-1107] | strong procoagulant effects | – | – | completely restored or even higher than in the non-anticoagulated plasma | completely restored or even higher than in the non-anticoagulated plasma | completely restored or even higher than in the non-anticoagulated plasma | completely restored or even higher than in the non-anticoagulated plasma | considerably shorter | largely increased
O=C(O)CCCCCSCC1OC2OC3C(CO)OC(OC4C(CO)OC(OC5C(CO)OC(OC6C(CO)OC(OC7C(CO)OC(OC8C(CO)OC(OC1C(O)C2O)C(O)C8O)C(O)C7O)C(O)C6O)C(O)C5O)C(O)C4O)C(O)C3O (centres unmarked) [OKL-1108] | substantial procoagulant effect | – | – | antagonized | antagonized | antagonized | antagonized | – | –
O=C(O)CCCCCSCC1OC2OC3C(CSCCCCCC(=O)O)OC(OC4C(CSCCCCCC(=O)O)OC(OC5C(CSCCCCCC(=O)O)OC(OC6C(CSCCCCCC(=O)O)OC(OC7C(CSCCCCCC(=O)O)OC(OC8C(CSCCCCCC(=O)O)OC(OC1C(O)C2O)C(O)C8O)C(O)C7O)C(O)C6O)C(O)C5O)C(O)C4O)C(O)C3O (centres unmarked) [OKL-1109] | small effects | – | – | marginal or no effects | marginal or no effects | marginal or no effects | marginal or no effects | – | –
O=C(O)CCCCCSCC1OC2OC3C(CO)OC(OC4C(CO)OC(OC5C(CO)OC(OC6C(CO)OC(OC7C(CO)OC(OC8C(CO)OC(OC9C(CO)OC(OC1C(O)C2O)C(O)C9O)C(O)C8O)C(O)C7O)C(O)C6O)C(O)C5O)C(O)C4O)C(O)C3O (centres unmarked) [OKL-1110] | very potent procoagulant effect | – | – | fully counteracted | strongly antagonized | fully counteracted | fully counteracted | – | –
OCCCSCC1OC2OC3C(CSCCCO)OC(OC4C(CSCCCO)OC(OC5C(CSCCCO)OC(OC6C(CSCCCO)OC(OC7C(CSCCCO)OC(OC8C(CSCCCO)OC(OC9C(CSCCCO)OC(OC1C(O)C2O)C(O)C9O)C(O)C8O)C(O)C7O)C(O)C6O)C(O)C5O)C(O)C4O)C(O)C3O (centres unmarked) [OKL-1146] | very strong procoagulant effects | – | – | restoration of thrombin generation to levels far above that of non-anticoagulated plasma | restoration of thrombin generation to levels far above that of non-anticoagulated plasma | restoration of thrombin generation to levels far above that of non-anticoagulated plasma | restoration of thrombin generation to levels far above that of non-anticoagulated plasma | considerably shorter | largely increased
O=C(O)CCSCC1OC2OC3C(CSCCC(=O)O)OC(OC4C(CSCCC(=O)O)OC(OC5C(CSCCC(=O)O)OC(OC6C(CSCCC(=O)O)OC(OC7C(CSCCC(=O)O)OC(OC8C(CSCCC(=O)O)OC(OC9C(CSCCC(=O)O)OC(OC1C(O)C2O)C(O)C9O)C(O)C8O)C(O)C7O)C(O)C6O)C(O)C5O)C(O)C4O)C(O)C3O (centres unmarked) [OKL-1170, reference compound] | did not show procoagulant activity | No | did not show procoagulant activity | – | – | – | – | – | –
O=C(O)CCCCSCC1OC2OC3C(CSCCCCC(=O)O)OC(OC4C(CSCCCCC(=O)O)OC(OC5C(CSCCCCC(=O)O)OC(OC6C(CSCCCCC(=O)O)OC(OC7C(CSCCCCC(=O)O)OC(OC8C(CSCCCCC(=O)O)OC(OC1C(O)C2O)C(O)C8O)C(O)C7O)C(O)C6O)C(O)C5O)C(O)C4O)C(O)C3O (centres unmarked) [OKL-1178] | procoagulant activity | – | – | – | – | – | – | – | –
O=C(O)CCCCCCSCC1OC2OC3C(CSCCCCCCC(=O)O)OC(OC4C(CSCCCCCCC(=O)O)OC(OC5C(CSCCCCCCC(=O)O)OC(OC6C(CSCCCCCCC(=O)O)OC(OC7C(CSCCCCCCC(=O)O)OC(OC8C(CSCCCCCCC(=O)O)OC(OC1C(O)C2O)C(O)C8O)C(O)C7O)C(O)C6O)C(O)C5O)C(O)C4O)C(O)C3O (centres unmarked) [OKL-1179] | procoagulant activity | – | – | – | – | – | – | – | –
